Test results reported in PubChem BioAssay (NCI).
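Exposure lasted 48 hours, with cells grown in 96-well plates and compounds tested at five concentrations. GI50 marks 50% less growth. TGI: total growth inhibition.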

Assays:
Experiment in all cases: DTP human tumour cell line panel, 48 h
OVCAR-3 ovarian = tested on: OVCAR-3 ovarian
HOP-92 NSCLC = tested on: HOP-92 NSCLC
SN12C renal = tested on: SN12C renal
COLO 205 colon = tested on: COLO 205 colon
NCI/ADR-RES ovarian = tested on: NCI/ADR-RES ovarian
OVCAR-5 ovarian = tested on: OVCAR-5 ovarian
SF-268 CNS = tested on: SF-268 CNS
HS 578T breast = tested on: HS 578T breast
ACHN renal = tested on: ACHN renal
HCT-116 colon = tested on: HCT-116 colon
MDA-MB-231 breast = tested on: MDA-MB-231 breast
786-0 renal = tested on: 786-0 renal
A549 NSCLC = tested on: A549 NSCLC
HL-60(TB) leukemia = tested on: HL-60(TB) leukemia
T-47D breast = tested on: T-47D breast
DU-145 prostate = tested on: DU-145 prostate
NCI-H23 lung = tested on: NCI-H23 lung
BT-549 breast = tested on: BT-549 breast
RXF 393 renal = tested on: RXF 393 renal
SNB-75 CNS = tested on: SNB-75 CNS
K-562 leukemia = tested on: K-562 leukemia
UACC-257 melanoma = tested on: UACC-257 melanoma
MCF7 breast = tested on: MCF7 breast
EKVX NSCLC = tested on: EKVX NSCLC
NCI-H460 lung = tested on: NCI-H460 lung
MOLT-4 leukemia = tested on: MOLT-4 leukemia
SK-MEL-28 melanoma = tested on: SK-MEL-28 melanoma
NCI-H522 lung = tested on: NCI-H522 lung
TK-10 renal = tested on: TK-10 renal
LOX IMVI melanoma = tested on: LOX IMVI melanoma
PC-3 prostate = tested on: PC-3 prostate
SF-295 CNS = tested on: SF-295 CNS
HCT-15 colon = tested on: HCT-15 colon
OVCAR-8 ovarian = tested on: OVCAR-8 ovarian
UACC-62 melanoma = tested on: UACC-62 melanoma
M14 melanoma = tested on: M14 melanoma
OVCAR-4 ovarian = tested on: OVCAR-4 ovarian
KM12 colon = tested on: KM12 colon
MDA-MB-435 = tested on: MDA-MB-435
CCRF-CEM leukemia = tested on: CCRF-CEM leukemia
SK-MEL-5 melanoma = tested on: SK-MEL-5 melanoma
SK-OV-3 ovarian = tested on: SK-OV-3 ovarian
HT29 colon = tested on: HT29 colon
SF-539 CNS = tested on: SF-539 CNS
IGROV1 ovarian = tested on: IGROV1 ovarian
U251 CNS = tested on: U251 CNS
HOP-62 NSCLC = tested on: HOP-62 NSCLC
RPMI-8226 leukemia = tested on: RPMI-8226 leukemia
HCC-2998 colon = tested on: HCC-2998 colon
CAKI-1 renal = tested on: CAKI-1 renal
SR leukemia = tested on: SR leukemia
SNB-19 CNS = tested on: SNB-19 CNS
SW-620 colon = tested on: SW-620 colon
SK-MEL-2 melanoma = tested on: SK-MEL-2 melanoma
MALME-3M melanoma = tested on: MALME-3M melanoma
NCI-H226 lung = tested on: NCI-H226 lung
UO-31 renal = tested on: UO-31 renal

SMILES: Cn1cc(CO)c2c1C(=O)C=C(N1CC1)C2=O
- GI50 (OVCAR-3 ovarian): < 13.3 nM
- TGI (OVCAR-3 ovarian): 37.5 nM
- GI50 (HOP-92 NSCLC): 898 nM
- TGI (HOP-92 NSCLC): 4000 nM
- GI50 (SN12C renal): < 10 nM
- TGI (SN12C renal): 27 nM
- GI50 (COLO 205 colon): < 18.7 nM
- GI50 (NCI/ADR-RES ovarian): 29.1 nM
- TGI (NCI/ADR-RES ovarian): 275 nM
- GI50 (OVCAR-5 ovarian): 36.5 nM
- TGI (OVCAR-5 ovarian): 4790 nM
- GI50 (SF-268 CNS): < 15.4 nM
- TGI (SF-268 CNS): 2350 nM
- GI50 (HS 578T breast): 17 nM
- TGI (HS 578T breast): 47.2 nM
- GI50 (ACHN renal): < 10 nM
- TGI (ACHN renal): 10.2 nM
- GI50 (HCT-116 colon): < 10.6 nM
- GI50 (MDA-MB-231 breast): 2660 nM
- TGI (MDA-MB-231 breast): 5960 nM
- GI50 (786-0 renal): < 10 nM
- TGI (786-0 renal): 108 nM
- GI50 (A549 NSCLC): < 10 nM
- TGI (A549 NSCLC): 3680 nM
- GI50 (HL-60(TB) leukemia): 2680 nM
- TGI (HL-60(TB) leukemia): 18100 nM
- GI50 (T-47D breast): 353 nM
- TGI (T-47D breast): 7810 nM
- GI50 (DU-145 prostate): < 10 nM
- TGI (DU-145 prostate): 131 nM
- GI50 (NCI-H23 lung): < 10 nM
- TGI (NCI-H23 lung): < 21.5 nM
- GI50 (BT-549 breast): < 12.8 nM
- TGI (BT-549 breast): 133 nM
- GI50 (RXF 393 renal): < 30.5 nM
- TGI (RXF 393 renal): 914 nM
- GI50 (SNB-75 CNS): < 10 nM
- TGI (SNB-75 CNS): 44.4 nM
- GI50 (K-562 leukemia): 22.4 nM
- TGI (K-562 leukemia): 11100 nM
- GI50 (UACC-257 melanoma): 19.8 nM
- TGI (UACC-257 melanoma): 69.2 nM
- GI50 (MCF7 breast): < 10 nM
- GI50 (EKVX NSCLC): 214 nM
- TGI (EKVX NSCLC): 1150 nM
- GI50 (NCI-H460 lung): < 10 nM
- TGI (NCI-H460 lung): 1270 nM
- GI50 (MOLT-4 leukemia): 2640 nM
- TGI (MOLT-4 leukemia): > 100000 nM
- GI50 (SK-MEL-28 melanoma): < 16.6 nM
- TGI (SK-MEL-28 melanoma): 605 nM
- GI50 (NCI-H522 lung): < 10 nM
- TGI (NCI-H522 lung): 77.5 nM
- GI50 (TK-10 renal): 21.5 nM
- GI50 (LOX IMVI melanoma): < 10 nM
- TGI (LOX IMVI melanoma): 18.4 nM
- GI50 (PC-3 prostate): 15.3 nM
- TGI (PC-3 prostate): 128 nM
- GI50 (SF-295 CNS): < 10 nM
- GI50 (HCT-15 colon): < 10 nM
- TGI (HCT-15 colon): 81.8 nM
- GI50 (OVCAR-8 ovarian): < 10 nM
- TGI (OVCAR-8 ovarian): 3580 nM
- GI50 (UACC-62 melanoma): < 10 nM
- TGI (UACC-62 melanoma): 16.3 nM
- GI50 (M14 melanoma): < 10 nM
- TGI (M14 melanoma): < 10 nM
- GI50 (OVCAR-4 ovarian): 25.6 nM
- TGI (OVCAR-4 ovarian): 91.7 nM
- GI50 (KM12 colon): 14.5 nM
- TGI (KM12 colon): 85.5 nM
- GI50 (MDA-MB-435): < 10 nM
- TGI (MDA-MB-435): 40 nM
- GI50 (CCRF-CEM leukemia): 260 nM
- TGI (CCRF-CEM leukemia): 11200 nM
- GI50 (SK-MEL-5 melanoma): < 10 nM
- TGI (SK-MEL-5 melanoma): < 10 nM
- GI50 (SK-OV-3 ovarian): 41.3 nM
- TGI (SK-OV-3 ovarian): 1310 nM
- GI50 (HT29 colon): < 18.9 nM
- TGI (HT29 colon): > 57300 nM
- GI50 (SF-539 CNS): < 10 nM
- TGI (SF-539 CNS): < 10 nM
- GI50 (IGROV1 ovarian): < 10.4 nM
- TGI (IGROV1 ovarian): 1800 nM
- GI50 (U251 CNS): < 10 nM
- TGI (U251 CNS): 72.6 nM
- GI50 (HOP-62 NSCLC): < 10 nM
- TGI (HOP-62 NSCLC): < 11.6 nM
- GI50 (RPMI-8226 leukemia): < 10 nM
- TGI (RPMI-8226 leukemia): 192 nM
- GI50 (HCC-2998 colon): < 12.2 nM
- TGI (HCC-2998 colon): 49 nM
- GI50 (CAKI-1 renal): < 10 nM
- TGI (CAKI-1 renal): < 12.5 nM
- GI50 (SR leukemia): < 10 nM
- TGI (SR leukemia): 14.5 nM
- GI50 (SNB-19 CNS): < 19.7 nM
- TGI (SNB-19 CNS): 862 nM
- GI50 (SW-620 colon): < 10 nM
- TGI (SW-620 colon): > 31600 nM

SMILES: COC(=O)CCC1=CCC2(SC)C(=O)Nc3cccc1c32 (stereo unspecified)
- TGI (OVCAR-3 ovarian): > 100000 nM
- TGI (HOP-92 NSCLC): > 100000 nM
- TGI (SN12C renal): > 100000 nM
- TGI (COLO 205 colon): > 100000 nM
- TGI (NCI/ADR-RES ovarian): > 100000 nM
- TGI (OVCAR-5 ovarian): > 100000 nM
- TGI (SF-268 CNS): > 100000 nM
- TGI (HS 578T breast): > 100000 nM
- TGI (ACHN renal): > 100000 nM
- TGI (HCT-116 colon): > 100000 nM
- TGI (MDA-MB-231 breast): > 100000 nM
- TGI (786-0 renal): > 100000 nM
- TGI (A549 NSCLC): > 100000 nM
- TGI (HL-60(TB) leukemia): > 100000 nM
- TGI (T-47D breast): > 100000 nM
- TGI (DU-145 prostate): > 100000 nM
- TGI (NCI-H23 lung): > 100000 nM
- TGI (BT-549 breast): > 100000 nM
- TGI (SK-MEL-2 melanoma): > 100000 nM
- TGI (SNB-75 CNS): > 100000 nM
- TGI (MALME-3M melanoma): > 100000 nM
- TGI (UACC-257 melanoma): > 100000 nM
- TGI (MCF7 breast): > 100000 nM
- TGI (NCI-H226 lung): > 100000 nM
- TGI (EKVX NSCLC): > 100000 nM
- TGI (NCI-H460 lung): > 100000 nM
- TGI (MOLT-4 leukemia): > 100000 nM
- TGI (SK-MEL-28 melanoma): > 100000 nM
- TGI (NCI-H522 lung): > 100000 nM
- TGI (TK-10 renal): > 100000 nM
- TGI (LOX IMVI melanoma): > 100000 nM
- TGI (PC-3 prostate): > 100000 nM
- TGI (SF-295 CNS): > 100000 nM
- TGI (HCT-15 colon): > 100000 nM
- TGI (OVCAR-8 ovarian): > 100000 nM
- TGI (UO-31 renal): > 100000 nM
- TGI (UACC-62 melanoma): > 100000 nM
- TGI (M14 melanoma): > 100000 nM
- TGI (OVCAR-4 ovarian): > 100000 nM
- TGI (KM12 colon): > 100000 nM
- TGI (MDA-MB-435): > 100000 nM
- TGI (CCRF-CEM leukemia): > 100000 nM
- TGI (SK-MEL-5 melanoma): > 100000 nM
- TGI (SK-OV-3 ovarian): > 100000 nM
- TGI (HT29 colon): > 100000 nM
- TGI (SF-539 CNS): > 100000 nM
- TGI (IGROV1 ovarian): > 100000 nM
- TGI (U251 CNS): > 100000 nM
- TGI (HOP-62 NSCLC): > 100000 nM
- TGI (RPMI-8226 leukemia): > 100000 nM
- TGI (HCC-2998 colon): > 100000 nM
- TGI (CAKI-1 renal): > 100000 nM
- TGI (SR leukemia): > 100000 nM
- TGI (SNB-19 CNS): > 100000 nM
- TGI (SW-620 colon): > 100000 nM
